Laboratory results from the NIST ThermoML archive (doi:10.1016/j.tca.2011.12.010).
Several values for one entry are separate records, joined by “and”; a condition that tells them apart may be missing. Equal values may be shown once. Numbers after ± are expanded uncertainties.

Assay: molar heat capacity at constant pressure
Details: 101.33 kPa, Small sample (50 mg) DSC

O=[N+]([O-])[O-].O=[N+]([O-])[O-].O=[N+]([O-])[O-].O=[N+]([O-])[O-].[K+].[K+].[Mg+2] [bis-potassium magnesium nitrate]
Details	molar heat capacity at constant pressure
461 K, Crystal 1	606.9 ± 12 J/K/mol
462 K, Crystal 1	680.8 ± 14 J/K/mol
463 K, Crystal 1	806.8 ± 16 J/K/mol
464 K, Crystal 1	1030.1 ± 22 J/K/mol
465 K, Crystal 1	1503.6 ± 34 J/K/mol
466 K, Crystal 1	2552.2 ± 57 J/K/mol
467 K, Crystal 1	4003 ± 80 J/K/mol
469 K, Liquid	2955.4 ± 60 J/K/mol
470 K, Liquid	2419.9 ± 50 J/K/mol
471 K, Liquid	1683.9 ± 36 J/K/mol
472 K, Liquid	1106.4 ± 24 J/K/mol
473 K, Liquid	770 ± 16 J/K/mol
474 K, Liquid	542.5 ± 11 J/K/mol
475 K, Liquid	510 ± 10 J/K/mol
476 K, Liquid	480.6 ± 9.6 J/K/mol
477 K, Liquid	469 ± 9.4 J/K/mol
478 K, Liquid	455.6 ± 9.1 J/K/mol
478.15 K, Liquid	463.8 ± 9.3 J/K/mol
479 K, Liquid	462.4 ± 9.2 J/K/mol
480 K, Liquid	462.4 ± 9.2 J/K/mol
481 K, Liquid	462.4 ± 9.2 J/K/mol
482 K, Liquid	462.6 ± 9.3 J/K/mol
483 K, Liquid	462.8 ± 9.3 J/K/mol
484 K, Liquid	463 ± 9.3 J/K/mol
485 K, Liquid	459.2 ± 9.2 J/K/mol and 463.2 ± 9.3 J/K/mol
486 K, Liquid	463.3 ± 9.3 J/K/mol
487 K, Liquid	463.4 ± 9.3 J/K/mol
488 K, Liquid	463.6 ± 9.3 J/K/mol
489 K, Liquid	463.8 ± 9.3 J/K/mol
490 K, Liquid	463.9 ± 9.3 J/K/mol
491 K, Liquid	464.1 ± 9.3 J/K/mol
492 K, Liquid	464.6 ± 9.3 J/K/mol
493 K, Liquid	464.6 ± 9.3 J/K/mol
494 K, Liquid	464.9 ± 9.3 J/K/mol
495 K, Liquid	465.2 ± 9.3 J/K/mol
496 K, Liquid	465.5 ± 9.3 J/K/mol
497 K, Liquid	465.6 ± 9.3 J/K/mol
498 K, Liquid	465.8 ± 9.3 J/K/mol
499 K, Liquid	466 ± 9.3 J/K/mol
500 K, Liquid	466.2 ± 9.3 J/K/mol
501 K, Liquid	466.4 ± 9.3 J/K/mol
502 K, Liquid	466.6 ± 9.3 J/K/mol
503 K, Liquid	466.1 ± 9.3 J/K/mol
504 K, Liquid	467 ± 9.3 J/K/mol
505 K, Liquid	467.2 ± 9.3 J/K/mol
506 K, Liquid	467.4 ± 9.3 J/K/mol
507 K, Liquid	467 ± 9.3 J/K/mol
508 K, Liquid	467.8 ± 9.4 J/K/mol
509 K, Liquid	466.6 ± 9.3 J/K/mol
510 K, Liquid	469 ± 9.4 J/K/mol and 466.2 ± 9.3 J/K/mol
511 K, Liquid	466.2 ± 9.3 J/K/mol
512 K, Liquid	464.1 ± 9.3 J/K/mol
513 K, Liquid	465.5 ± 9.3 J/K/mol
514 K, Liquid	464.5 ± 9.3 J/K/mol
515 K, Liquid	471.8 ± 9.4 J/K/mol
516 K, Liquid	470.4 ± 9.4 J/K/mol
517 K, Liquid	466.9 ± 9.3 J/K/mol
518 K, Liquid	471.1 ± 9.4 J/K/mol
519 K, Liquid	476.4 ± 9.5 J/K/mol
520 K, Liquid	475.7 ± 9.5 J/K/mol and 471.8 ± 9.4 J/K/mol
521 K, Liquid	475.7 ± 9.5 J/K/mol
522 K, Liquid	480.9 ± 9.6 J/K/mol
523 K, Liquid	478.1 ± 9.6 J/K/mol
524 K, Liquid	478.6 ± 9.6 J/K/mol
525 K, Liquid	479.1 ± 9.6 J/K/mol
526 K, Liquid	478.1 ± 9.6 J/K/mol
527 K, Liquid	478.7 ± 9.6 J/K/mol
528 K, Liquid	478.8 ± 9.6 J/K/mol
529 K, Liquid	485.8 ± 9.7 J/K/mol
530 K, Liquid	480.6 ± 9.6 J/K/mol
531 K, Liquid	474.6 ± 9.5 J/K/mol
532 K, Liquid	475.7 ± 9.5 J/K/mol
533 K, Liquid	476 ± 9.5 J/K/mol
534 K, Liquid	477.4 ± 9.5 J/K/mol
535 K, Liquid	483.4 ± 9.7 J/K/mol and 478.8 ± 9.6 J/K/mol
536 K, Liquid	480.6 ± 9.6 J/K/mol
537 K, Liquid	481.3 ± 9.6 J/K/mol
538 K, Liquid	483.4 ± 9.7 J/K/mol
539 K, Liquid	484.4 ± 9.7 J/K/mol
540 K, Liquid	486.5 ± 9.7 J/K/mol
541 K, Liquid	486.9 ± 9.7 J/K/mol
542 K, Liquid	487.6 ± 9.8 J/K/mol
543 K, Liquid	489 ± 9.8 J/K/mol
544 K, Liquid	490.7 ± 9.8 J/K/mol
545 K, Liquid	491.8 ± 9.8 J/K/mol
546 K, Liquid	493.5 ± 9.9 J/K/mol
547 K, Liquid	494.9 ± 9.9 J/K/mol
548 K, Liquid	495.6 ± 9.9 J/K/mol
549 K, Liquid	496.7 ± 9.9 J/K/mol
550 K, Liquid	498.4 ± 10 J/K/mol
551 K, Liquid	499.5 ± 10 J/K/mol
552 K, Liquid	500.9 ± 10 J/K/mol
553 K, Liquid	502.3 ± 10 J/K/mol
554 K, Liquid	503 ± 10 J/K/mol
555 K, Liquid	504.4 ± 10 J/K/mol
556 K, Liquid	505.8 ± 10 J/K/mol
557 K, Liquid	506.5 ± 10 J/K/mol
558 K, Liquid	508.2 ± 10 J/K/mol
559 K, Liquid	508.9 ± 10 J/K/mol
560 K, Liquid	510.3 ± 10 J/K/mol
561 K, Liquid	511.4 ± 10 J/K/mol
562 K, Liquid	512.4 ± 10 J/K/mol
563 K, Liquid	513.1 ± 10 J/K/mol
564 K, Liquid	514.2 ± 10 J/K/mol
565 K, Liquid	515.2 ± 10 J/K/mol
566 K, Liquid	517 ± 10 J/K/mol
567 K, Liquid	518 ± 10 J/K/mol
568 K, Liquid	518.4 ± 10 J/K/mol
569 K, Liquid	518.4 ± 10 J/K/mol
570 K, Liquid	519.1 ± 10 J/K/mol
571 K, Liquid	519.4 ± 10 J/K/mol
572 K, Liquid	518.4 ± 10 J/K/mol
573 K, Liquid	519.1 ± 10 J/K/mol
574 K, Liquid	519.1 ± 10 J/K/mol
575 K, Liquid	521.4 ± 10 J/K/mol and 519.4 ± 10 J/K/mol
576 K, Liquid	519.8 ± 10 J/K/mol
577 K, Liquid	518.7 ± 10 J/K/mol
578 K, Liquid	511.7 ± 10 J/K/mol
579 K, Liquid	512.8 ± 10 J/K/mol
580 K, Liquid	514.2 ± 10 J/K/mol and 525.2 ± 10 J/K/mol
581 K, Liquid	515.9 ± 10 J/K/mol
582 K, Liquid	517.3 ± 10 J/K/mol
583 K, Liquid	518.7 ± 10 J/K/mol
584 K, Liquid	520.5 ± 10 J/K/mol
585 K, Liquid	521.9 ± 10 J/K/mol and 529.9 ± 11 J/K/mol
586 K, Liquid	524 ± 10 J/K/mol
587 K, Liquid	525.4 ± 10 J/K/mol
588 K, Liquid	526.8 ± 10 J/K/mol
589 K, Liquid	528.2 ± 11 J/K/mol
590 K, Liquid	529.9 ± 11 J/K/mol and 531.4 ± 11 J/K/mol
591 K, Liquid	525.4 ± 10 J/K/mol
592 K, Liquid	525.4 ± 10 J/K/mol
593 K, Liquid	526.1 ± 10 J/K/mol
594 K, Liquid	526.4 ± 10 J/K/mol
595 K, Liquid	525.4 ± 10 J/K/mol and 534.2 ± 11 J/K/mol
596 K, Liquid	526.1 ± 10 J/K/mol
597 K, Liquid	526.1 ± 10 J/K/mol
598 K, Liquid	527.1 ± 10 J/K/mol
599 K, Liquid	525.7 ± 10 J/K/mol
600 K, Liquid	525 ± 10 J/K/mol and 537.1 ± 11 J/K/mol
601 K, Liquid	526.4 ± 10 J/K/mol
602 K, Liquid	521.9 ± 10 J/K/mol
603 K, Liquid	521.9 ± 10 J/K/mol
604 K, Liquid	519.8 ± 10 J/K/mol
605 K, Liquid	522.6 ± 10 J/K/mol and 539.5 ± 11 J/K/mol
606 K, Liquid	524.7 ± 10 J/K/mol
607 K, Liquid	524.7 ± 10 J/K/mol
608 K, Liquid	520.8 ± 10 J/K/mol
609 K, Liquid	521.9 ± 10 J/K/mol
610 K, Liquid	526.8 ± 10 J/K/mol and 541 ± 11 J/K/mol
611 K, Liquid	532 ± 11 J/K/mol
612 K, Liquid	525 ± 10 J/K/mol
613 K, Liquid	529.2 ± 11 J/K/mol
614 K, Liquid	536.6 ± 11 J/K/mol
615 K, Liquid	532 ± 11 J/K/mol and 545.6 ± 11 J/K/mol
616 K, Liquid	533.8 ± 11 J/K/mol
617 K, Liquid	541.5 ± 11 J/K/mol
618 K, Liquid	537.6 ± 11 J/K/mol
619 K, Liquid	543.2 ± 11 J/K/mol
620 K, Liquid	538.7 ± 11 J/K/mol and 547.7 ± 11 J/K/mol
621 K, Liquid	542.2 ± 11 J/K/mol
622 K, Liquid	543.6 ± 11 J/K/mol
623 K, Liquid	544.3 ± 11 J/K/mol
623.15 K, Liquid	543.9 ± 11 J/K/mol and 552.9 ± 11 J/K/mol
